Several values for one entry are separate records, joined by “and”; a condition that tells them apart may be missing. Equal values may be shown once. Inconclusive results and toxic doses are left out. Rule for the calls: active = survival T/C of 150% or more; inactive = T/C below 125% in these data.
System: BDF1 mice, P388 leukemia ip, median survival T/C
Test: NCI In Vivo Anticancer Drug Screen. Data for tumor model P388 Leukemia (intraperitoneal) in B6D2F1 (BDF1) mice
Conditions: endpoint: median survival time, higher = longer survival
Procedure, shortened: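 Mice carrying the transplantable tumour receive compound or vehicle. Survival is followed in each arm, and the treated measure is divided by the vehicle measure.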

[1] = dose: 50.0 mg/kg/injection, schedule: Q01DX009 (ip), vehicle: Klucel (hydroxypropylcellulose) (HPC)
[2] = dose: 100.0 mg/kg/injection, schedule: Q01DX009 (ip), vehicle: Klucel (hydroxypropylcellulose) (HPC)
[3] = dose: 200.0 mg/kg/injection, schedule: Q01DX009 (ip), vehicle: Klucel (hydroxypropylcellulose) (HPC)
[4] = dose: 100.0 mg/kg/injection, schedule: Q04DX003 (ip), vehicle: saline
[5] = dose: 200.0 mg/kg/injection, schedule: Q04DX003 (ip), vehicle: saline
[6] = dose: 100.0 mg/kg/injection, schedule: Q01DX009 (ip), vehicle: saline with Tween-80
[7] = dose: 200.0 mg/kg/injection, schedule: Q01DX009 (ip), vehicle: saline with Tween-80
[8] = dose: 400.0 mg/kg/injection, schedule: Q01DX009 (ip), vehicle: saline with Tween-80
[9] = dose: 6.25 mg/kg/injection, schedule: Q01DX009 (ip), vehicle: saline with Tween-80
[10] = dose: 12.5 mg/kg/injection, schedule: Q01DX009 (ip), vehicle: saline with Tween-80

Measured: T/C

Cc1cc2nc(CBr)c(CBr)nc2cc1C
inactive: dose: 1.56 mg/kg/injection, schedule: Q01DX009 (ip), vehicle: saline 120 % of control | dose: 3.12 mg/kg/injection, schedule: Q01DX009 (ip), vehicle: saline 120 % of control | dose: 3.12 mg/kg/injection, schedule: Q04DX003 (ip), vehicle: saline 95 % of control | dose: 6.25 mg/kg/injection, schedule: Q01DX009 (ip), vehicle: saline 95 % of control | dose: 6.25 mg/kg/injection, schedule: Q04DX003 (ip), vehicle: saline 100 % of control | dose: 8.75 mg/kg/injection, schedule: Q01DX001 (ip), vehicle: Klucel (hydroxypropylcellulose) (HPC) 94 % of control | dose: 12.5 mg/kg/injection, schedule: Q04DX003 (ip), vehicle: saline 90 % of control | dose: 17.5 mg/kg/injection, schedule: Q01DX001 (ip), vehicle: Klucel (hydroxypropylcellulose) (HPC) 88 % of control | dose: 18.0 mg/kg/injection, schedule: Q04DX003 (ip), vehicle: saline 90 % of control | dose: 35.0 mg/kg/injection, schedule: Q01DX001 (ip), vehicle: Klucel (hydroxypropylcellulose) (HPC) 88 % of control

Nc1nc(-c2cccnc2)cc2ccccc12
inactive: dose: 12.5 mg/kg/injection, schedule: Q04DX003 (ip), vehicle: saline with Tween-80 106 % of control | dose: 25.0 mg/kg/injection, schedule: Q04DX003 (ip), vehicle: saline with Tween-80 91 % of control

COC(=O)/C(C=Nc1ccccc1)=C(/C)O
inactive: [1] 112 % of control | [2] 103 % of control | [3] 108 % of control

OCCNCc1ccc2ccccc2n1
inactive: [4] 100 % of control | [5] 100 % of control

O=C1CC(=O)N(c2ccccc2)C(=O)N1
inactive: [6] 94 % of control | [7] 88 % of control | [8] 106 % of control

Cn1ncc2c(NCc3ccc(Cl)cc3)ncnc21
inactive: [9] 97 % of control | [10] 101 % of control | dose: 25.0 mg/kg/injection, schedule: Q01DX009 (ip), vehicle: saline with Tween-80 93 % of control | dose: 50.0 mg/kg/injection, schedule: Q01DX009 (ip), vehicle: saline with Tween-80 97 % of control

COC(=O)C(CO)NC(=O)OCc1ccc(OC)cc1 (centres undefined)
inactive: dose: 12.5 mg/kg/injection, schedule: Q01DX009 (ip), vehicle: distilled water + Tween-80 87 % of control | dose: 25.0 mg/kg/injection, schedule: Q01DX009 (ip), vehicle: distilled water + Tween-80 89 % of control | dose: 50.0 mg/kg/injection, schedule: Q01DX009 (ip), vehicle: distilled water + Tween-80 104 % of control | dose: 100.0 mg/kg/injection, schedule: Q01DX009 (ip), vehicle: distilled water + Tween-80 114 % of control

CSc1ncncc1N
inactive: dose: 50.0 mg/kg/injection, schedule: Q01DX009 (ip), vehicle: saline 105 % of control | dose: 100.0 mg/kg/injection, schedule: Q01DX009 (ip), vehicle: saline 105 % of control

OCC1OC(n2ccc3c2ncn2ccnc32)C(O)C1O (centres undefined)
inactive: dose: 25.0 mg/kg/injection, schedule: Q04DX003 (ip), vehicle: saline 110 % of control | dose: 50.0 mg/kg/injection, schedule: Q04DX003 (ip), vehicle: saline 102 % of control | [4] 96 % of control | [5] 102 % of control

O=c1c2ccccc2nc(-c2ccccc2Cl)n1-c1nnc(C(F)(F)F)s1
inactive: dose: 3.12 mg/kg/injection, schedule: Q01DX009 (ip), vehicle: saline with Tween-80 87 % of control | [9] 89 % of control | [10] 89 % of control

S=C(Nc1ccccn1)Nc1ccccn1
inactive: dose: 25.0 mg/kg/injection, schedule: Q01DX009 (ip), vehicle: Klucel (hydroxypropylcellulose) (HPC) 99 % of control and 106 % of control | [1] 99 % of control and 118 % of control | [2] 89 % of control and 116 % of control | [3] 98 % of control

CC(=O)[C@H]1CC[C@H]2[C@@H]3CCC4=CC(=O)CC[C@]4(C)[C@H]3CC[C@]12C
inactive: dose: 100.0 mg/kg/injection, schedule: Q01DX009 (sc), vehicle: steriod suspending solution 104 % of control | dose: 100.0 mg/kg/injection, schedule: Q04DX003 (sc), vehicle: steriod suspending solution 100 % of control | dose: 200.0 mg/kg/injection, schedule: Q01DX009 (sc), vehicle: steriod suspending solution 87 % of control | dose: 200.0 mg/kg/injection, schedule: Q04DX003 (sc), vehicle: steriod suspending solution 105 % of control | dose: 400.0 mg/kg/injection, schedule: Q01DX009 (sc), vehicle: steriod suspending solution 87 % of control | dose: 400.0 mg/kg/injection, schedule: Q04DX003 (sc), vehicle: steriod suspending solution 110 % of control

Br/C(C=Nc1ccccc1)=C\Nc1ccccc1
inactive: [6] 100 % of control | [7] 110 % of control

CC(=O)CC(=O)N1CCCCCC1
inactive: [6] 89 % of control | dose: 100.0 mg/kg/injection, schedule: Q04DX003 (ip), vehicle: saline with Tween-80 109 % of control | [7] 92 % of control | dose: 200.0 mg/kg/injection, schedule: Q04DX003 (ip), vehicle: saline with Tween-80 90 % of control | [8] 107 % of control | dose: 400.0 mg/kg/injection, schedule: Q04DX003 (ip), vehicle: saline with Tween-80 104 % of control

CC[C@H](/C=C/[C@@H](C)[C@H]1CC[C@H]2[C@@H]3CC=C4C[C@@H](OC(=O)/C=C\C(=O)O)CC[C@]4(C)[C@H]3CC[C@]12C)C(C)C
inactive: dose: 6.25 mg/kg/injection, schedule: Q01DX009 (ip), vehicle: other 120 % of control | dose: 12.5 mg/kg/injection, schedule: Q01DX009 (ip), vehicle: other 105 % of control | dose: 18.75 mg/kg/injection, schedule: Q04DX003 (ip), vehicle: other 100 % of control | dose: 25.0 mg/kg/injection, schedule: Q01DX009 (ip), vehicle: other 100 % of control | dose: 37.5 mg/kg/injection, schedule: Q04DX003 (ip), vehicle: other 95 % of control | dose: 75.0 mg/kg/injection, schedule: Q04DX003 (ip), vehicle: other 104 % of control

CO[C@H](C)[C@](O)(C(=O)OCC1=CCN2CC[C@@H](O)[C@H]12)C(C)C
inactive: dose: 25.0 mg/kg/injection, schedule: Q01DX010 (ip), vehicle: carboxymethylcellulose (CMC) 111 % of control | dose: 50.0 mg/kg/injection, schedule: Q01DX010 (ip), vehicle: carboxymethylcellulose (CMC) 111 % of control | dose: 100.0 mg/kg/injection, schedule: Q01DX010 (ip), vehicle: carboxymethylcellulose (CMC) 111 % of control

Cc1ccn(C(=O)CC#N)n1
inactive: dose: 75.0 mg/kg/injection, schedule: Q01DX009 (ip), vehicle: saline with Tween-80 91 % of control | dose: 150.0 mg/kg/injection, schedule: Q01DX009 (ip), vehicle: saline with Tween-80 97 % of control | dose: 300.0 mg/kg/injection, schedule: Q01DX009 (ip), vehicle: saline with Tween-80 92 % of control

C(=NC(c1ccccc1)(c1ccccc1)c1ccccc1)=NC(c1ccccc1)(c1ccccc1)c1ccccc1
inactive: dose: 12.5 mg/kg/injection, schedule: Q01DX009 (ip), vehicle: gum acacia 87 % of control | dose: 25.0 mg/kg/injection, schedule: Q01DX009 (ip), vehicle: gum acacia 100 % of control | dose: 50.0 mg/kg/injection, schedule: Q01DX009 (ip), vehicle: gum acacia 95 % of control | dose: 100.0 mg/kg/injection, schedule: Q01DX009 (ip), vehicle: gum acacia 88 % of control | dose: 100.0 mg/kg/injection, schedule: Q04DX003 (ip), vehicle: gum acacia 100 % of control | dose: 200.0 mg/kg/injection, schedule: Q01DX009 (ip), vehicle: gum acacia 88 % of control | dose: 200.0 mg/kg/injection, schedule: Q04DX003 (ip), vehicle: gum acacia 91 % of control

Source: PubChem BioAssay AID328 (DTP/NCI, 2004)
